# Assay results reported in ChEMBL document CHEMBL2057107, “Synthesis and evaluation of aplysinopsin analogs as inhibitors of human monoamine oxidase A and B” (Bioorg Med Chem Lett, 2012).
# Key:
# [1] = target: T1, Amine oxidase [flavin-containing] A (Homo sapiens, UniProt P21397); assay: Inhibition of human recombinant MAO-A using kynuramine as substrate preincubated with compound for 15 mins measured after 20 mins by fluorometric analysis
# T1 sequence (P21397 whole entry): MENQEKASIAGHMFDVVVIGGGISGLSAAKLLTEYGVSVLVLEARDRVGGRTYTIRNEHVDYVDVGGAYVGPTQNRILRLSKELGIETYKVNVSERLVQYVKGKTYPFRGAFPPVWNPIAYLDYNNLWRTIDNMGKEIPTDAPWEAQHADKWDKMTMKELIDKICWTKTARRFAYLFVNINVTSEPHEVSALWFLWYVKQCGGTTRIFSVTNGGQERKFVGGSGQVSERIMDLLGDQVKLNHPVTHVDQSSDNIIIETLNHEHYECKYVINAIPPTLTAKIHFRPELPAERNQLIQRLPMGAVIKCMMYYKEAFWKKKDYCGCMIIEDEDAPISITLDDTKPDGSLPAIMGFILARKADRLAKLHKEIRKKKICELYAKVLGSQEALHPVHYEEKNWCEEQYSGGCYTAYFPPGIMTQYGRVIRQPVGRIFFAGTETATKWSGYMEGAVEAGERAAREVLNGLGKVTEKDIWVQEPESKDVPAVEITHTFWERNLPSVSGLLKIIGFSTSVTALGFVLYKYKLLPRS
# Homo sapiens = species: Homo sapiens; assay: Selectivity ratio of IC50 for human recombinant MAO-B to IC50 for human recombinant MAO-A
# [2] = target: T2, Amine oxidase [flavin-containing] B (Homo sapiens, UniProt P27338); assay: Inhibition of human recombinant MAO-B using kynuramine as substrate preincubated with compound for 15 mins measured after 20 mins by fluorometric analysis
# T2 sequence (P27338 whole entry): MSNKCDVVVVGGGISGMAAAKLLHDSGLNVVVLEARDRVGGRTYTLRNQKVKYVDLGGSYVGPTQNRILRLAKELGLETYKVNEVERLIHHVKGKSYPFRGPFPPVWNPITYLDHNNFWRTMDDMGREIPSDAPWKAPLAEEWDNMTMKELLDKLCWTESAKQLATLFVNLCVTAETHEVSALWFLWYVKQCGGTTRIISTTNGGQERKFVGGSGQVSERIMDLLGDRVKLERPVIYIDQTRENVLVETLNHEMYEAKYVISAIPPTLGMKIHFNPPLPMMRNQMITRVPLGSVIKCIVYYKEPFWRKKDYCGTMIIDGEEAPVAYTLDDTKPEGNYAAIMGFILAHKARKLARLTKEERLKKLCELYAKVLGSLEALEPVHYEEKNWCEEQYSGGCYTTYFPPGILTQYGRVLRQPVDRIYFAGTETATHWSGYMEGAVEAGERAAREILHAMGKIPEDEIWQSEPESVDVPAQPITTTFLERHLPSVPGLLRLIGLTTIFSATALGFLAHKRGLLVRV
IC50 [1] [µM],Ratio IC50 (Homo sapiens),IC50 [2] [µM],Compound
0.035,290,10,CN1C(=N)N(C)/C(=C/c2c[nH]c3ccccc23)C1=O [APLYSINOPSIN]
5.48,4.9,26.8,C/N=C1/N/C(=C\c2c[nH]c3cccc(Br)c23)C(=O)N1C
1.23,2.08,2.57,O=C1NC(=S)N/C1=C\c1c[nH]c2ccc(Br)cc12
0.153,18.4,2.82,C/N=C1\N(C)C(=O)/C(=C\c2c[nH]c3c(Br)cccc23)N1C
2.47,11.5,28.3,N=C1NC(=O)/C(=C/c2c[nH]c3cccc(Br)c23)N1
1.52,24.4,37,CN1C(=N)N/C(=C\c2c[nH]c3cccc(Br)c23)C1=O
1.8,3.9,7.03,C/N=C1\NC(=O)/C(=C/c2c[nH]c3cccc(Br)c23)N1
5.82,5.24,30.5,C/N=C1/N/C(=C\c2c[nH]c3ccccc23)C(=O)N1C
3.25,5.16,16.8,C/N=C1/N/C(=C\c2c[nH]c3ccc(Br)cc23)C(=O)N1C
0.098,92.3,9.02,C/N=C1\N(C)C(=O)/C(=C\c2c[nH]c3ccccc23)N1C [METHYLAPLYSINOPSIN]
26.2,,> 100,CN1C(=N)NC(=O)/C1=C\c1c[nH]c2cccc(Br)c12
1.53,1.67,2.57,O=C1NC(=S)N/C1=C\c1c[nH]c2cc(Br)ccc12
6.07,5.87,35.7,CN1C(=N)NC(=O)/C1=C\c1c[nH]c2cc(Br)ccc12
0.327,13.2,4.3,CN1C(=N)N/C(=C\c2c[nH]c3ccc(Br)cc23)C1=O
0.627,3.88,2.43,CSC1=NC(=O)/C(=C/c2c[nH]c3c(Br)cccc23)N1
14.3,1.69,24.3,O=C1NC(=S)N/C1=C\c1c[nH]c2ccccc12
1.97,17.5,34.3,CN1C(=N)N/C(=C\c2c[nH]c3ccccc23)C1=O
2.78,21.3,59.3,CSC1=N/C(=C\c2c[nH]c3ccccc23)C(=O)N1
0.623,8.37,5.22,C/N=C1\N(C)C(=O)/C(=C\c2c[nH]c3cccc(Br)c23)N1C
1.2,1.66,2,C/N=C1\NC(=O)/C(=C/c2c[nH]c3ccc(Br)cc23)N1
0.029,92,2.67,C/N=C1\NC(=O)/C(=C\c2c[nH]c3cc(Br)ccc23)N1C
0.085,4.38,0.37,C/N=C1\N(C)C(=O)/C(=C\c2c[nH]c3ccc(Br)cc23)N1C
13.3,0.45,6,C/N=C1\NC(=O)/C(=C/c2c[nH]c3ccccc23)N1
3.08,11,33.8,C/N=C1\NC(=O)/C(=C\c2c[nH]c3ccccc23)N1C [ISOPLYSIN A]

IC50 [1] [µM],Ratio IC50 (Homo sapiens),IC50 [2] [µM],Compound
0.543,2.27,1.24,O=C1NC(=S)N/C1=C\c1c[nH]c2c(Br)cccc12
1.9,6.75,12.8,C/N=C1\NC(=O)/C(=C\c2c[nH]c3c(Br)cccc23)N1C
8,3.06,24.5,CN1C(=N)NC(=O)/C1=C\c1c[nH]c2ccc(Br)cc12
2.07,24.8,51.2,CN1C(=N)N(C)/C(=C/c2c[nH]c3cccc(Br)c23)C1=O
2.58,10.2,26.3,C/N=C1\NC(=O)/C(=C\c2c[nH]c3cccc(Br)c23)N1C
0.677,5.51,3.73,CSC1=NC(=O)/C(=C/c2c[nH]c3cccc(Br)c23)N1
0.018,11.2,0.207,C/N=C1\N(C)C(=O)/C(=C\c2c[nH]c3cc(Br)ccc23)N1C
1.08,3.94,4.26,C/N=C1/N/C(=C\c2c[nH]c3c(Br)cccc23)C(=O)N1C
12.8,2.59,33,N=C1NC(=O)/C(=C/c2c[nH]c3ccccc23)N1
0.267,1.68,0.45,O=C1NC(=S)N/C1=C\c1c[nH]c2cccc(Br)c12
0.052,60.5,3.12,CN1C(=N)N(C)/C(=C/c2c[nH]c3c(Br)cccc23)C1=O
0.0056,,0.447,CN1C(=N)N(C)/C(=C/c2c[nH]c3cc(Br)ccc23)C1=O
5.52,5.04,27.8,N=C1NC(=O)/C(=C/c2c[nH]c3c(Br)cccc23)N1
0.533,2.65,1.42,CSC1=NC(=O)/C(=C/c2c[nH]c3cc(Br)ccc23)N1
4.43,4.66,20.7,C/N=C1\NC(=O)/C(=C/c2c[nH]c3cc(Br)ccc23)N1
6.11,5.62,34.3,CN1C(=N)NC(=O)/C1=C\c1c[nH]c2c(Br)cccc12
1.12,22.9,25.7,C/N=C1/N/C(=C\c2c[nH]c3cc(Br)ccc23)C(=O)N1C
3.9,6.66,26,C/N=C1\NC(=O)/C(=C/c2c[nH]c3c(Br)cccc23)N1
7.13,1.22,8.75,CSC1=NC(=O)/C(=C/c2c[nH]c3ccc(Br)cc23)N1
3.68,6.88,25.3,N=C1NC(=O)/C(=C/c2c[nH]c3cc(Br)ccc23)N1
0.236,11.4,2.7,CN1C(=N)N(C)/C(=C/c2c[nH]c3ccc(Br)cc23)C1=O
12.2,3.55,43.2,CN1C(=N)NC(=O)/C1=C\c1c[nH]c2ccccc12
0.263,44.2,11.6,C/N=C1\NC(=O)/C(=C\c2c[nH]c3ccc(Br)cc23)N1C
0.165,23,3.8,CN1C(=N)N/C(=C\c2c[nH]c3cc(Br)ccc23)C1=O
